Laboratory results as given in patent publication US9815883B2, “Inhibiting peptides derived from TREM-like transcript 1 (TLT-1) and uses thereof” (Institut National de la Sante et de la Recherche Medicale …, priority 2010, dated 2017).
Entries after “also recorded” stand apart in the source; their conditions may differ.

Assays:
[1] = test system: TREM-1 ligand binding to immobilized TREM-1; assay: Surface plasmon resonance, LPS-stimulated neutrophils supernatants on rsTREM-1-coated sensor chip; design: species or system human; conditions: FIG. 1D
Description: (C-D) Surface plasmon resonance assays of LPS-stimulated neutrophils supernatants to a rsTREM-1-coated sensorship in absence (C) or presence (D) of LR17.
Detection of TREM-1-ligand on LPS-stimulated neutrophils supernatants was assessed by binding to a recombinant soluble form of TREM-1 (rsTREM-1) coated on a CM5 sensor chip with the BIAcore X instrument at 25° C. with a flow rate of […]. Binding specificity was verified through competition with the soluble rsTREM-1. Inhibition of TREM-1-ligand binding by LR17 was assessed.

[2] = test system: male Balb/c mice; assay: Caecal ligation and puncture (CLP) polymicrobial sepsis model; type: in vivo, mouse
Description: Adult male Balb/c mice (20-23 g) were subjected to caecal ligation and puncture under isoflurane anaesthesia and were randomly grouped (n=5-10 per group) to receive a single LR17 (100 μg in 0.2 mL NaCl 0.9%), scrambled-LR17 ([…] in 0.2 mL NaCl 0.9%), or 0.2 mL NaCl 0.9% i.p. injection. After 24 hours, animals were killed under anaesthesia. Results are mean±SD. p values are *p<0.05, **p<0.01, ***p<0.001 compared with control animals.
(A-B) Adult male Balb/c mice (20-23 g) were subjected to caecal ligation and puncture under isoflurane anaesthesia and were randomly grouped (n=25-40 per group) to receive a LR17, scrambled-LR17, or 0.2 mL NaCl 0.9% i.p. injection at indicated times. Survival was monitored over 1 wk and analyzed by Log Rank test.
Male Balb/c mice (4-6 weeks) were anesthetized with isoflurane. The cecum was exposed through a 1.0 cm abdominal midline incision and subjected to a ligation of the distal half followed by one puncture with a G21 needle. A small amount of stool was expelled from the puncture to ensure patency. The cecum was replaced into the peritoneal cavity and the abdominal incision closed in two layers. After surgery, all mice were injected s.c. with 0.5 mL of 0.9% NaCl solution for fluid resuscitation. The animals were randomly grouped and treated LR17 or LR17-scrambled as control in 250 μL 0.9% NaCl solution and administered i.p. In order to determine the effect of various doses of LR17 at different times, mice were treated with 50, 100 or 200 μg of LR17 at H1 after surgery, or with 3 injections of 100 μg at 2, 6 and 24 hours or with 100 μg in one injection at 24 hours after CLP and then monitored for survival. Five additional animals per group were killed under anaesthesia at 24 h after CLP for the determination of bacterial count and cytokines levels. Peritoneal lavage fluid was obtained using 2 mL RPMI 1640 (EuroBio), and blood was collected by cardiac puncture. Concentrations of plasma cytokines were determined by ELISA (R&Dsystems). For the assessment of bacterial counts, blood and crushed spleen were plated in serial log dilutions on tryptic soy supplemented with 5% sheep blood agar plates. After plating, tryptic soy agar plates were incubated at 37° C. aerobically for 24 h and anaerobically for 48 h. Results are expressed as CFU per ml of blood or per gram of spleen.

[3] = test system: neutrophils or monocytes; assay: Flow cytometry binding to neutrophils or monocytes; design: species or system human; conditions: cells not expressing TREM-1 ligand
Description: PMNs were isolated by a Sodium Diatrizoate 13.8%/Dextran 500 8.0% density gradient (polymorphprep, AbCys). Monocytes were isolated by negative cell-sorting of PB-MNCs by Monocytes Isolation Kit II (Miltenyi). Cells were then washed twice with PBS (BioMerieux) and resuspended in complete medium (RPMI 1640 containing 100 UI/mL penicillin, 100 μg/mL streptomycin, […] Amphotericin B and 10% FCS, Eurobio) before stimulation. Purity was assessed by flow cytometry (anti-CD45, -CD14 and -CD66b, Beckman Coulter).
Isolated cells (neutrophils, monocytes or platelets) were blocked for aspecific binding with 10% human Ig (Sigma-Aldrich) for 1 hour on ice. Cells were incubated with recombinant soluble FITC-labelled TLT-1-peptides, FITC-labelled LP17 (or corresponding FITC-labelled scrambled peptides), PE-labelled anti-TREM-1 mAb (R&Dsystems), CD62P-FITC, CD66b-PE, CD45-PE, CD14-FITC (all from Beckman Coulter)

[4] = test system: male Balb/c mice; assay: LPS-induced endotoxemia in mice; type: in vivo, mouse
Description: Male Balb/c mice (20-23 g) were randomly grouped (15 mice per group) and treated with an LD50 of LPS. LR17 (100 μg or 250 μg in 0.2 mL NaCl 0.9%), scrambled-LR17 (100 μg in 0.2 mL NaCl 0.9%), or 0.2 mL NaCl 0.9% was administered 60 min before or 60 minutes after LPS. 4-6 animals per group were sacrificed upon penthotal overdose at 2 and 4 hours after LPS injection and blood was sampled through cardiac puncture. Results are mean±SD. p values are *p<0.05, **p<0.01, ***p<0.001 compared with control animals.
After approval by the local ethical committee, male Balb/c mice (4-6 weeks) were randomly grouped and treated with LPS i.p. in combination with LR17 (in 250 μL normal saline) or LR17-scrambled 1 hour before or after LPS challenge. The viability of mice was examined every hour, or animals were killed at regular intervals. Serum samples were collected by cardiac puncture and assayed for cytokines and sTREM-1 levels by ELISA (R&Dsystems).

[5] = test system: TREM-1; assay: CARD9-MALT1-BCL10 complex formation (immunoprecipitation) in neutrophils; type: cell-based, human; conditions: peptide 30 μg/mL
Description: (B) CARD9-MALT1-BCL10 complex formation: Immunoblot of MALT-1 after immunoprecipitation with anti-BCL10 mAb of lysates of neutrophils stimulated for 20 minutes.
(B) […] complex formation: Immunoblot of MALT-1 after immunoprecipitation with anti-BCL10 mAb of lysates of neutrophils stimulated for 20 minutes.
Cells were lysed with CytoBuster Protein Extraction Reagent (Novagen). Samples were normalized by total protein concentration and lysates were pre-cleared before performing Immunoprecipitation. Pre-cleared lysates were then incubated overnight at 4° C. with rabbit-anti-Bcl10 mAb (Cell Signaling) or rabbit-anti-CARD9 (Antibodies Online). Thereafter, anti-rabbit-Ig beads (eBioscience) were added for 1 hour at room temperature. Beads were then washed 3 times, denatured in Laemli buffer 5 minutes at 95° C. and centrifuged at 16,000 g for 1 min.

For “LQEEDAGEYGCMVDGAR (listed as Homo sapiens) [LR17]”, the “binding of the TREM-1 ligand to immobilized TREM-1” value [1] was “able to block the binding”, the “plasma IL-6 and IL-10 concentrations” value ([2]; 100 μg i.p. 2 hours after surgery, 24 hours after surgery) was “decreased” and the “repeated injections versus single dose administration” value ([2]; 3 injections of 100 μg at 2, 6 and 24 hours) was “not superior”. For the same sequence, the “protection against lethality (survival)” value ([2]; 50, 100 or 200 μg, also administered 24 h after onset of sepsis, survival over 1 wk, Log Rank test) was “dose-dependent significant protection”, the “septicaemia (blood bacterial counts)” value ([2]; 24 hours) was “almost completely prevented septicaemia” and the “IL-6 and IL-10 in broncho-alveolar lavage fluid and peritoneal lavage fluid” value ([2]; 24 hours after surgery) was “decreased”. For the same sequence, the lung histological alterations ([2]; 24 hours after the CLP) was “attenuated”, the “cell infiltration in peritoneum and alveolar space” value ([2]; mouse, in vivo) was “reduced” and the “coagulation abnormalities (D-dimer and TATc plasma and alveolar concentrations)” value ([2]; mouse, in vivo) was “prevented”. For the same sequence, the “plasma levels of C5a, IL-1ra, IL16, MCP-1, MIP-la, MIP-2 (cytokine array)” value ([2]; mouse, in vivo) was “decreased concentration”, the “binding to neutrophils or monocytes” value [3] was “did not bind” and the “serum levels of TNF-α, IL-6, IL-10 and sTREM-1” value ([4]; 2 and 4 h, pre- and post-treatment, versus controls) was “reduced”. For the same sequence, the survival curve ([4]; Log Rank test, p=0.0032) was “confers a survival advantage”, the “survival, delayed treatment” value ([4]; injected 1 hour after LPS) was “significant protection” and the “comparison of doses (250 μg vs 100 μg) or injection times” value ([4]; mouse, in vivo) was “no differences between doses or injection times; also recorded: did not confer advantage”. The late death ([4]; over 10 days) was “No late death occurred”, the survival ([4]; single i.p. dose 60 min before LPS (LD50, 25 mg/kg)) was “All LR17-treated animals survived” and the CARD9-MALT1-BCL10 complex formation ([5]; LPS 0.1 μg/mL with or without αTREM-1) was “decreased”. The CARD9-MALT1-BCL10 complex formation ([5]; αTREM-1 5 μg/mL, 20 minutes) was “reversed”.
